Like-named read-outs stand apart in the source and are kept apart here.
What was measured:
[1] = test system: liver cancer (3 cell lines); assay: CellTiter-Glo Viability Assay, liver cancer; type: cell-based; conditions: Homo sapiens, inhibition of cancer cell proliferation
Procedure: (§1) Fifty-one human cancer cell lines (breast cancer (8 cell lines), colorectal cancer (6 cell lines), haematopoietic & lymphoid tumors (13 cell lines), liver cancer (3 cell lines), lung cancer (4 cell lines), ovarian cancer (4 cell lines), pancreatic cancer (8 cell lines), and prostate cancer (5 cell lines)) were tested to determine the effects of representative compounds of Formulas (I)-(XII) on cellular proliferation, as evaluated using the CellTiter-Glo® Viability Assay.
(§2) For the Cell Viability Assays, cells were plated at 300-3,000 cells/well in 384-well plates in their respective media containing 1% Penicillin-Streptomycin and incubated for four days at 37° C. and 5% CO2. Twenty-eight replicates of DMSO-treated cells served as controls and cells treated with compound were performed in duplicate.
(§3) After incubation, 10 μL of CellTiter-Glo® (Promega) was added to each well allowed to incubate for approximately 12 minutes. This reagent results in cell lysis and generation of a luminescent signal proportional to the amount of ATP present. The amount of ATP is directly proportional to the number of metabolically active, viable cells present in culture. The CellTiter-Glo® Assay generates a luminescent signal, produced by the luciferase reaction (Promega.com).
(§4) After incubation, the luminescence signal was read using an EnVision™ Multilabel Plate Reader (Perkin Elmer). Dose-response curves were generated and EC50 concentration values were calculated using Dotmatics' Studies Software (Bishops Stortford, UK).

[2] = test system: pancreatic cancer (8 cell lines); assay: CellTiter-Glo Viability Assay, pancreatic cancer; type: cell-based; conditions: Homo sapiens, inhibition of cancer cell proliferation
Procedure: as §1, §2, §3, §4

[3] = test system: ovarian cancer (4 cell lines); assay: CellTiter-Glo Viability Assay, ovarian cancer; type: cell-based; conditions: Homo sapiens, inhibition of cancer cell proliferation
Procedure: as §1, §2, §3, §4

[4] = test system: lung cancer (4 cell lines); assay: CellTiter-Glo Viability Assay, lung cancer; type: cell-based; conditions: Homo sapiens, inhibition of cancer cell proliferation
Procedure: as §1, §2, §3, §4

[5] = test system: haematopoietic & lymphoid tumors (13 cell lines); assay: CellTiter-Glo Viability Assay, haematopoietic & lymphoid tumors; type: cell-based; conditions: Homo sapiens, inhibition of cancer cell proliferation
Procedure: as §1, §2, §3, §4

CLK3 = CLK3 (Homo sapiens, UniProt P49761); assay: CLK3 kinase activity assay (Z-lyte, Ser/Thr 18 peptide)
ZR-75-1 = assay: CellTiter-Glo Viability Assay, breast cancer; type: cell-based; conditions: Homo sapiens, 96 h; ZR-75-1, breast cancer, four days; read-out: EC50
Procedure: as §1, §2, §3, §4

CAMA1 = assay: CellTiter-Glo Viability Assay, breast cancer; type: cell-based; conditions: Homo sapiens, CAMA-1, 96 h; CAMA1, breast cancer, four days; read-out: EC50
Procedure: as §1, §2, §3, §4

DU4475 = assay: CellTiter-Glo Viability Assay, breast cancer; type: cell-based; conditions: Homo sapiens, DU-4475, 96 h; DU4475, breast cancer, four days; read-out: EC50
Procedure: as §1, §2, §3, §4

BT-549 = assay: CellTiter-Glo Viability Assay, breast cancer; type: cell-based; conditions: Homo sapiens, 96 h; BT-549, breast cancer, four days; read-out: EC50
Procedure: as §1, §2, §3, §4

T47D = assay: CellTiter-Glo Viability Assay, breast cancer; type: cell-based; conditions: Homo sapiens, 96 h, breast cancer, four days, read-out: EC50
Procedure: as §1, §2, §3, §4

HCC1599 = assay: CellTiter-Glo Viability Assay, breast cancer; type: cell-based; conditions: Homo sapiens, 96 h; HCC1599, breast cancer, four days; read-out: EC50
Procedure: as §1, §2, §3, §4

MCF7 = assay: CellTiter-Glo Viability Assay, breast cancer; type: cell-based; conditions: Homo sapiens, 96 h; MCF7, breast cancer, four days; read-out: EC50
Procedure: as §1, §2, §3, §4

[6] = test system: prostate cancer (5 cell lines); assay: CellTiter-Glo Viability Assay, prostate cancer; type: cell-based; conditions: Homo sapiens
Procedure: as §1, §2, §3, §4

[7] = test system: colorectal cancer (6 cell lines); assay: CellTiter-Glo Viability Assay, colorectal cancer; type: cell-based; conditions: Homo sapiens, inhibition of cancer cell proliferation
Procedure: as §1, §2, §3, §4

CLK2 = target: T1, CLK2 (Homo sapiens, UniProt P49760); assay: CLK2 kinase activity assay (Z-lyte, Ser/Thr 6 peptide); type: biochemical; conditions: recombinant CLK2 kinase, ATP 60 μM; read-out: EC50
T1 construct: purchased Thermo Fisher (Life Technologies), Z'-LYTE Kinase Assay Kits
Procedure: All reactions were performed in duplicate.

all 50 cell lines = assay: CellTiter-Glo Viability Assay, average across all cell lines; type: cell-based; conditions: Homo sapiens; across all 50 cell lines; read-out: average EC50 for inhibition of cancer cell proliferation
Procedure: as §1, §2, §3, §4

Sequence of CLK3 (P49761 whole entry): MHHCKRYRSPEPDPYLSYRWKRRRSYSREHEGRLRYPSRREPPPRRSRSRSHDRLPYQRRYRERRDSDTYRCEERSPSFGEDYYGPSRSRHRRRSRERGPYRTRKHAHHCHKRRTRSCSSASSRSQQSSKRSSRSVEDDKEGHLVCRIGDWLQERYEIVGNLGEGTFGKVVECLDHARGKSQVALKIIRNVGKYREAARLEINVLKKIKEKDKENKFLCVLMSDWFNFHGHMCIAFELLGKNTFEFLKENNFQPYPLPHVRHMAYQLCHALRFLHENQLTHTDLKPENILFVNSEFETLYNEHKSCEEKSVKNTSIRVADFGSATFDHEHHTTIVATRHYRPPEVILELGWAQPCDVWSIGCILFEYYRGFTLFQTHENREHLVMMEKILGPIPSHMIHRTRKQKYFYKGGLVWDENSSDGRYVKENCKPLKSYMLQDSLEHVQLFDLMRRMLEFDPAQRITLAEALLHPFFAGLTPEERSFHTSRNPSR
T1 sequence (P49760 whole entry): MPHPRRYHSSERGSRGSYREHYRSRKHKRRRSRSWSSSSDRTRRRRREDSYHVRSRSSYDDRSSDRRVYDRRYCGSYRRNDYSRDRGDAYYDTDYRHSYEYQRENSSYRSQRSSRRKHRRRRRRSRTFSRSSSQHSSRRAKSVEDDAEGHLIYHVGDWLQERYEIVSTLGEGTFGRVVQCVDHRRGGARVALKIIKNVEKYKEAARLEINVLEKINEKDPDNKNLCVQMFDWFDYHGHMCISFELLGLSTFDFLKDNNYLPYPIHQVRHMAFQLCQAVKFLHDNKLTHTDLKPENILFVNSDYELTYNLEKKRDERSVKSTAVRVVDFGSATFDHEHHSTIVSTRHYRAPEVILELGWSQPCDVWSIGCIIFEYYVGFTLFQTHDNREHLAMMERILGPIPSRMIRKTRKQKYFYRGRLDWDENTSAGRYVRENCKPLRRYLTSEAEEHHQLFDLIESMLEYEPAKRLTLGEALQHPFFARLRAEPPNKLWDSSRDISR

## CN1CCN(c2cc(C(=O)Nc3cc4cc(-c5cn(C)nn5)ccc4cn3)ccn2)CC1 [Compound 14]
[1]; SNU-398, SNU398 cell line, read-out: Liver cancer, EC50 SNU398
  EC50: 69 nM
[1]; HEPG2 cell line, read-out: Liver cancer, EC50 HEPG2
  EC50: 431 nM
[1]; PLC/PRF/5 cell line, read-out: Liver cancer, EC50 PLC/PRF/5
  EC50: 541 nM
[2]; BXPC-3, BxPC3 cell line, read-out: Pancreatic cancer, EC50 BxPC3
  EC50: 484 nM
[2]; CAPAN-1, Capan1 cell line, read-out: Pancreatic cancer, EC50 Capan1
  EC50: 225 nM
[2]; Capan-2, Capan2 cell line, read-out: Pancreatic cancer, EC50 Capan2
  EC50: 464 nM
[2]; MIA PaCa-2 cell line, read-out: Pancreatic cancer, EC50 MIA PaCa-2
  EC50: 134 nM
[2]; PANC 05.04 cell line, read-out: Pancreatic cancer, EC50 PANC 05.04
  EC50: 323 nM
[2]; PANC-1 cell line, read-out: Pancreatic cancer, EC50 PANC-1
  EC50: 429 nM
[2]; UPAFII cell line, read-out: Pancreatic cancer, EC50 UPAFII
  EC50: 157 nM
[3]; PA-1, PA1 cell line, read-out: Ovarian cancer, EC50 (μM) PA1
  EC50: 0.186 µM
[3]; TOV112D, TOV-112D cell line, read-out: Ovarian cancer, EC50 (μM) TOV-112D
  EC50: 0.171 µM
[3]; OV-90 cell line, read-out: Ovarian cancer, EC50 (μM) OV-90
  EC50: 0.464 µM
[3]; OVCAR-3 cell line, read-out: Ovarian cancer, EC50 (μM) OVCAR-3
  EC50: 0.116 µM
[4]; A-427, A427 cell line, read-out: Lung cancer, EC50 (μM) A427
  EC50: 0.303 µM
[4]; HCC78, HCC-78 cell line, read-out: Lung cancer, EC50 (μM) HCC-78
  EC50: 0.467 µM
[4]; NCI-H460 cell line, read-out: Lung cancer, EC50 (μM) NCI-H460
  EC50: 0.268 µM
[4]; NCI-H522 cell line, read-out: Lung cancer, EC50 (μM) NCI-H522
  EC50: 0.142 µM
[5]; DND41, DND-41 cell line, read-out: Haematopoietic & Lymphoid tumors, EC50 (μM) DND-41
  EC50: 0.216 µM
[5]; MV4-11, MV-4-11 cell line, read-out: Haematopoietic & Lymphoid tumors, EC50 (μM) MV-4-11
  EC50: 0.101 µM
[5]; Rec1, REC-1 cell line, read-out: Haematopoietic & Lymphoid tumors, EC50 (μM) REC-1
  EC50: 0.08 µM
[5]; SU-DHL-4, SUDHL4 cell line, read-out: Haematopoietic & Lymphoid tumors, EC50 (μM) SUDHL4
  EC50: 0.317 µM
[5]; HL-60 cell line, read-out: Haematopoietic & Lymphoid tumors, EC50 (μM) HL-60
  EC50: 0.719 µM
[5]; JM1 cell line, read-out: Haematopoietic & Lymphoid tumors, EC50 (μM) JM1
  EC50: 0.093 µM
[5]; JURKAT, Clone E6-1 cell line, read-out: Haematopoietic & Lymphoid tumors, EC50 (μM) JURKAT, Clone E6-1
  EC50: 0.511 µM
[5]; JeKo-1 cell line, read-out: Haematopoietic & Lymphoid tumors, EC50 (μM) JeKo-1
  EC50: 0.073 µM
[5]; KASUMI-1 cell line, read-out: Haematopoietic & Lymphoid tumors, EC50 (μM) KASUMI-1
  EC50: 0.174 µM
[5]; Loucy cell line, read-out: Haematopoietic & Lymphoid tumors, EC50 (μM) Loucy
  EC50: 0.192 µM
[5]; MOLT-4 cell line, read-out: Haematopoietic & Lymphoid tumors, EC50 (μM) MOLT-4
  EC50: 0.327 µM
[5]; TF-1 cell line, read-out: Haematopoietic & Lymphoid tumors, EC50 (μM) TF-1
  EC50: 0.367 µM
[5]; TOLEDO cell line, read-out: Haematopoietic & Lymphoid tumors, EC50 (μM) TOLEDO
  EC50: 0.104 µM
CLK3
  EC50: 24 nM
ZR-75-1
  EC50: 410 nM
CAMA1
  EC50: 329 nM
DU4475
  EC50: 137 nM
BT-549
  EC50: 339 nM
T47D
  EC50: 503 nM
HCC1599
  EC50: 165 nM
MCF7
  EC50: 725 nM
[6]; DU-145, read-out: Prostate cancer EC50 Du-145
  EC50: 325 nM
[6]; PC-3, PC3 cell line, inhibition of cancer cell proliferation, read-out: Prostate cancer EC50 PC3
  EC50: 240 nM
[6]; 22Rv1 cell line, inhibition of cancer cell proliferation, read-out: Prostate cancer EC50 22Rv1
  EC50: 263 nM
[6]; LNCap clone FGC cell line, inhibition of cancer cell proliferation, read-out: Prostate cancer EC50 LNCap clone FGC
  EC50: 422 nM
[6]; VCaP (Sigma) cell line, inhibition of cancer cell proliferation, read-out: Prostate cancer EC50 VCaP (Sigma)
  EC50: 588 nM
[7]; HCT-116, HCT116 cell line, read-out: Colorectal cancer, EC50 (μM) HCT116
  EC50: 0.14 µM
[7]; HT-29, HT29 cell line, read-out: Colorectal cancer, EC50 (μM) HT29
  EC50: 0.295 µM
[7]; SW-620, SW620 cell line, read-out: Colorectal cancer, EC50 (μM) SW620
  EC50: 0.113 µM
[7]; DLD-1 cell line, read-out: Colorectal cancer, EC50 (μM) DLD-1
  EC50: 0.161 µM
[7]; SW48 cell line, read-out: Colorectal cancer, EC50 (μM) SW48
  EC50: 0.096 µM
[7]; SW480 cell line, read-out: Colorectal cancer, EC50 (μM) SW480
  EC50: 0.191 µM
CLK2
  EC50: 2 nM
All 50 cell lines
  EC50: 289 nM
